According to patent US20260256807A1, “SUBSTITUTED PYRAZOLES AND IMIDAZOLES AS OREXIN RECEPTOR ANTAGONISTS COMPOSITION, METHODS FOR TREATING NEUROLOGICAL AND PSYCHOLOGICAL DISORDERS” (HAGER BIOSCIENCES, LLC, priority 2022, published 2026):

Legend:
human orexin-1 receptor = molecular target: T1, human orexin-1 receptor (Homo sapiens, UniProt O43613); assay: Intracellular calcium (FLIPR) antagonist assay, CHO cells expressing human orexin-1 receptor, 3 nM orexin-A; assay type: cell-based; conditions: CHO, 1 uM compound, orexin-A 3 nM, read-out: OXIR % Inh. @ 1 uM
T1 construct: expressed in transfected cells; host or cells: CHO cells (G418 selection)
T1 sequence (O43613 1-425): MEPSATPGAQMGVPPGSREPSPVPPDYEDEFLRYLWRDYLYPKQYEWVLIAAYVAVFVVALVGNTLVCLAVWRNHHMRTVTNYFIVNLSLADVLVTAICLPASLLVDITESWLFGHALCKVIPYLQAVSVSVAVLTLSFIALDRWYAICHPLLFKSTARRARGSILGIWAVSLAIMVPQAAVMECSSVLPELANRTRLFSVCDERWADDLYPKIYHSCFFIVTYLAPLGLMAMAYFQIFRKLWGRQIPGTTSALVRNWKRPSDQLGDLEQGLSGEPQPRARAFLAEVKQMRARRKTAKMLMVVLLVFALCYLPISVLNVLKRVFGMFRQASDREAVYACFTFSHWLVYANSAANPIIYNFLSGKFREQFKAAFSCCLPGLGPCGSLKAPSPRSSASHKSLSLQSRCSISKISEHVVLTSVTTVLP
Description: (§1) Antagonistic activities on both orexin receptors (i.e., to identify Orexin Receptor Antagonists) have been measured for each example compound using the in vitro assays (intracellular calcium measurements) as described herein. Other assays may also be used to identify Orexin Receptor Antagonists as would be understood by those of ordinary skill in the art. Chinese hamster ovary (CHO) cells expressing the human orexin-1 receptor and the human orexin-2 receptor, respectively, are grown in culture medium (Ham F-12 with L-Glutamine) containing 300 μg/mL G418, 100 U/mL penicillin, 100 μg/mL streptomycin and 10% heat inactivated fetal calf serum (FCS). The cells are seeded at 20′000 cells/well into 384-well black clear bottom sterile plates (Greiner). The seeded plates are incubated overnight at 37° C. in 5% CO2. Human orexin-A as an agonist is prepared as 1 mM stock solution in MeOH: water (1:1), diluted in HBSS containing 0.1% bovine serum albumin (BSA), NaHC03: 0.375 g/L and 20 mM HEPES for use in the assay at a final concentration of 3 nM.
(§2) Antagonists were prepared as 10 mM stock solution in DMSO, then diluted in 384-well plates using DMSO followed by a transfer of the dilutions into in HBSS containing 0.1% bovine serum albumin (BSA), NaHC03: 0.375 g/L and 20 mM HEPES. On the day of the assay, 50 μL of staining buffer (HBSS containing 1% FCS, 20 mM HEPES, NaHC03: 0.375 g/L, 5 mM probenecid (Sigma) and 3 μM of the fluorescent calcium indicator fluro-4 AM (1 mM stock solution in DMSO, containing 10% pluronic) is added to each well. The 384-well cell-plates are incubated for 50 min at 37° C. in 5% C02 followed by equilibration at RT for 30 min before measurement. Within the Fluorescent Imaging Plate Reader (FLIPR Tetra, Molecular Devices), potential Orexin Receptor Antagonists were added to the plate in a volume of 10 μl/well, incubated for 120 min and finally 10 μL/well of agonist is added. Fluorescence was measured for each well at 1 second intervals, and the height of each fluorescence peak compared to the height of the fluorescence peak induced by 3 nM orexin-A with vehicle in place of antagonist. The IC50 value (the concentration of compound needed to inhibit 50% of the agonistic response) was determined and normalized using the obtained IC50 value of an on-plate reference compound. Optimized conditions were achieved by adjustment of pipetting speed and cell splitting regime. The calculated IC50 values fluctuate depending on the daily cellular assay performance, as is known to those skilled in the art. In the case where IC50 values have been determined several times for the same compound, the geometric mean has been given.

human orexin-2 receptor = molecular target: T2, human orexin-2 receptor (Homo sapiens, UniProt O43614); assay: Intracellular calcium (FLIPR) antagonist assay, CHO cells expressing human orexin-2 receptor, 3 nM orexin-A; assay type: cell-based; conditions: CHO, 1 uM compound, orexin-A 3 nM, read-out: OX2R % Inh. @ 1uM
T2 construct: expressed in transfected cells; host or cells: CHO cells (G418 selection)
T2 sequence (O43614 1-444): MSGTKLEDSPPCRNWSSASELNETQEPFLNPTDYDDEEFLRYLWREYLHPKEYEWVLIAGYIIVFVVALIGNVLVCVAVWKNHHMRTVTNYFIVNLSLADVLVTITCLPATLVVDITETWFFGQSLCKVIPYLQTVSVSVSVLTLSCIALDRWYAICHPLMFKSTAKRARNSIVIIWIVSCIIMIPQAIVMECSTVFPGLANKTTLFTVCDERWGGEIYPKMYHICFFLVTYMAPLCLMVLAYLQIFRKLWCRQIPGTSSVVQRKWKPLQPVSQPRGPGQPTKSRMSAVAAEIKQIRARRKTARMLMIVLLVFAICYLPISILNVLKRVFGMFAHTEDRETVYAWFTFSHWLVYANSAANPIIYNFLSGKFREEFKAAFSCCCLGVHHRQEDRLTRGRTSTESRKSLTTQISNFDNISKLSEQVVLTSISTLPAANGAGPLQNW
Description: as §1, §2

inhibition at 1 µM (human orexin-1 receptor) | inhibition at 1 µM (human orexin-2 receptor) | SMILES
99% | 97% | C[C@@H]1CCN(c2nc3cc(Cl)ccc3o2)CCN1C(=O)c1nn2c(c1-c1ccccc1)OCCC2 [Example 59]
97% | 81% | C[C@@H]1CCN(c2ccc(C(F)(F)F)cn2)CCN1C(=O)c1nn2c(c1-c1ccccc1)OCCC2 [Example 60]
100% | 64% | C[C@@H]1CCN(c2nc3cc(Cl)ccc3o2)CCN1C(=O)c1c(-c2ncccn2)nn2ccccc12 [Example 61]
100% | 44% | C[C@@H]1CCN(c2ccc(C(F)(F)F)cn2)CCN1C(=O)c1c(-c2ncccn2)nn2ccccc12 [Example 62]
100% | 96% | C[C@@H]1CCN(c2nc3cc(Cl)ccc3o2)CCN1C(=O)c1c(-c2ccccn2)nn2ccccc12 [Example 63]
100% | 85% | C[C@@H]1CCN(c2ccc(C(F)(F)F)cn2)CCN1C(=O)c1c(-c2ccccn2)nn2ccccc12 [Example 64]
99% | 80% | C[C@@H]1CCN(c2nc3cc(Cl)ccc3o2)CCN1C(=O)c1c(-c2ccccc2)nn2cccnc12 [Example 65]
99% | 83% | C[C@@H]1CCN(c2ccc(C(F)(F)F)cn2)CCN1C(=O)c1c(-c2ccccc2)nn2cccnc12 [Example 66]
99% | 80% | C[C@@H]1CCN(c2nc3cc(Cl)ccc3o2)CCN1C(=O)c1nn2cccnc2c1-c1ccccc1 [Example 67]
100% | 68% | C[C@@H]1CCN(c2ccc(C(F)(F)F)cn2)CCN1C(=O)c1nn2cccnc2c1-c1ccccc1 [Example 68]
23% | 34% | Cc1cc(C)nc(N2CC[C@@H](C)N(C(=O)c3nc4ccccn4c3-c3ccccc3)CC2)n1 [Example 69]
27% | 44% | Cc1cc(C)nc(N2CC[C@@H](C)N(C(=O)c3nn4c(c3-c3ccccc3)COCC4)CC2)n1 [Example 70]
75% | 96% | Cc1cc(C)nc(N2CC[C@@H](C)N(C(=O)c3nn4ccccc4c3-c3ccccc3)CC2)n1 [Example 71]
28% | 65% | Cc1cc(C)nc(N2CC[C@@H](C)N(C(=O)c3c(-c4ccccc4)nn4c3COCC4)CC2)n1 [Example 72]
65% | 95% | Cc1cc(C)nc(N2CC[C@@H](C)N(C(=O)c3c(-c4ccccc4)nc4ccccn34)CC2)n1 [Example 73]
74% | 95% | Cc1cc(C)nc(N2CC[C@@H](C)N(C(=O)c3nn4cccnc4c3-c3ccccc3)CC2)n1 [Example 74]
79% | 100% | Cc1cc(C)nc(N2CC[C@@H](C)N(C(=O)c3c(-c4ccccn4)nn4ccccc34)CC2)n1 [Example 75]
23% | 11% | COc1ccc(N2CC[C@@H](C)N(C(=O)c3nn4c(c3-c3ccccc3)COCC4)CC2)nc1 [Example 76]
38% | 16% | COc1ccc(N2CC[C@@H](C)N(C(=O)c3nc4ccccn4c3-c3ccccc3)CC2)nc1 [Example 77]
90% | 52% | COc1ccc(N2CC[C@@H](C)N(C(=O)c3nn4ccccc4c3-c3ccccc3)CC2)nc1 [Example 78]
45% | 21% | COc1ccc(N2CC[C@@H](C)N(C(=O)c3nn4c(c3-c3ccccc3)OCCC4)CC2)nc1 [Example 79]
78% | 39% | COc1ccc(N2CC[C@@H](C)N(C(=O)c3nn4cccnc4c3-c3ccccc3)CC2)nc1 [Example 80]

Further lines, the molecule ahead of its results:

SMILES | inhibition at 1 µM (human orexin-1 receptor) | inhibition at 1 µM (human orexin-2 receptor)
Cc1cc(C)nc(N2CC3CN(C(=O)C4C(c5ccccc5)=NN5C=CC=CC45)CC3C2)n1 (stereo not drawn) [Example 42] | 40.4% | 68%
Cc1cc(C)nc(N2CC3CN(C(=O)c4c(-c5ccccc5)nc5ccccn45)CC3C2)n1 (stereo not drawn) [Example 43] | 19.6% | 38.4%
Cc1cc(C)nc(N2CC3CN(C(=O)c4c(-c5ccccc5F)nn5ccccc45)CC3C2)n1 (stereo not drawn) [Example 44] | 19.2% | 56.1%
O=C(c1c(-c2ccccc2F)nn2ccccc12)N1CC2CN(c3ccc(C(F)(F)F)cn3)CC2C1 (stereo not drawn) [Example 45] | 78.2% | 27.1%
O=C(c1c(-c2ccc(F)cc2)nn2ccccc12)N1CC2CN(c3ccc(C(F)(F)F)cn3)CC2C1 (stereo not drawn) [Example 46] | 53.9% | 14.6%
O=C(c1c(-c2ccccc2F)nn2ccccc12)N1CC2CN(c3nc4cc(Cl)ccc4o3)CC2C1 (stereo not drawn) [Example 47] | 97% | 89%
O=C(c1c(-c2ccc(F)cc2)nn2ccccc12)N1CC2CN(c3nc4cc(Cl)ccc4o3)CC2C1 (stereo not drawn) [Example 48] | 87.1% | 63.2%
Cc1cc(C)nc(N2CC3CN(C(=O)c4c(-c5ccccc5F)nn5c4COCC5)CC3C2)n1 (stereo not drawn) [Example 49] | -5.54% | 12.8%
O=C(c1c(-c2ccccc2F)nn2c1COCC2)N1CC2CN(c3ccc(C(F)(F)F)cn3)CC2C1 (stereo not drawn) [Example 50] | 9.55% | 1.62%
O=C(c1c(-c2ccccc2F)nn2c1COCC2)N1CC2CN(c3nc4cc(Cl)ccc4o3)CC2C1 (stereo not drawn) [Example 51] | 38.5% | 24.3%
C[C@@H]1CCN(c2nc3cc(Cl)ccc3o2)CCN1C(=O)c1c(-c2ccccc2F)nn2ccccc12 [Example 52] | 100% | 98.7%
C[C@@H]1CCN(c2ccc(C(F)(F)F)cn2)CCN1C(=O)c1c(-c2ccccc2F)nn2ccccc12 [Example 53] | 102% | 98.8%
Cc1cc(C)nc(N2CC[C@@H](C)N(C(=O)c3c(-c4ccccc4F)nn4ccccc34)CC2)n1 [Example 54] | 91.9% | 99.7%
C[C@@H]1CCN(c2ccc(C(F)(F)F)cn2)CCN1C(=O)c1nc2ccccn2c1-c1ccccc1 [Example 55] | 97% | 37%
C[C@@H]1CCN(c2nc3cc(Cl)ccc3o2)CCN1C(=O)c1nc2ccccn2c1-c1ccccc1 [Example 56] | 97% | 27%
C[C@@H]1CCN(c2nc3cc(Cl)ccc3o2)CCN1C(=O)c1nn2c(c1-c1ccccc1)COCC2 [Example 57] | 98% | 28%
C[C@@H]1CCN(c2ccc(C(F)(F)F)cn2)CCN1C(=O)c1nn2c(c1-c1ccccc1)COCC2 [Example 58] | 94% | 30%
